Values joined by “and” are separate entries in the source; they are usually repeats but may differ in a detail not shown here. Equal values may be shown once.

These results are taken from patent US20120052130A1, “GPR 119 MODULATORS” (Pfizer Inc., priority 2009, published 2012).

The target in test [1] is T1, human GPR119 (Homo sapiens, UniProt Q8TDV5).
T1 construct: host or cells: U2OS hGPR119 β-arrestin cell line
Kind of test: DiscoverX PathHunter β-arrestin cell assay (U2OS hGPR119 β-arrestin cell line). It is filed as cell-based. The settings on record: U2OS hGPR119 β-arrestin cells; each line is a separate determination; read-out: Human B-arrestin Functional EC50. As for the experimental part: GPR119 agonist activity was also determined with a cell-based assay utilizing DiscoverX PathHunter β-arrestin cell assay technology and their U2OS hGPR119 β-arrestin cell line (DiscoverX Cat #93-0356 C3). In this assay, agonist activation is determined by measuring agonist-induced interaction of β-arrestin with activated GPR119. A small, 42 amino acid enzyme fragment, called ProLink was appended to the C-terminus of GPR119. Arrestin was fused to the larger enzyme fragment, termed EA (Enzyme Acceptor). […]
After 16 hours (overnight) the assay plates were removed from the incubator and varying concentrations of each compound to be tested (diluted in assay buffer (1×HBSS+CaCl2+MgCl2 (Gibco Cat #14025-092), 20 mM HEPES pH 7.0 (Gibco Cat #15630-080) and 0.1% BSA (Sigma Cat # A9576)) were added to the assay plate wells in a volume of 5 microliters (final DMSO concentration was 0.5%). After a 90 minute incubation at 37 degrees Celsius in a humidified environment in 5% carbon dioxide, 12 microliters of Galacton Star β-galactosidase substrate (PathHunter Detection Kit (DiscoveRx Cat #93-0001); prepared as described in the manufacturers assay protocol) was added to each well of the assay plate. The plates were incubated at room temperature and after 60 minutes, changes in the luminescence were read with an Envision 2104 multilabel plate reader at 0.1 seconds per well. […]
T1 sequence (P32121 whole entry partner, one chain of several): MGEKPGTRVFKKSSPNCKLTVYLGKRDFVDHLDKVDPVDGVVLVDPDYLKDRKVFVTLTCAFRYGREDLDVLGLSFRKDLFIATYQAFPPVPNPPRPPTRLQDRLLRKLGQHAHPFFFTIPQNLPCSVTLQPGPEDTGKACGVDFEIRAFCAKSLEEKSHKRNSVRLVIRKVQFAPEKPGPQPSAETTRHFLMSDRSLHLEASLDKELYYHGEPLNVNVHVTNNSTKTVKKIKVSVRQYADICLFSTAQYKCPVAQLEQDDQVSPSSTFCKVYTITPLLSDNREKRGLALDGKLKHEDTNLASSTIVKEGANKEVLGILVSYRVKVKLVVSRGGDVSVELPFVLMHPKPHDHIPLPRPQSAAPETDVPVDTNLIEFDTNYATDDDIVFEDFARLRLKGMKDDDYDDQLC

Test [2] addresses T2, human GPR119 (Homo sapiens, UniProt Q8TDV5).
T2 sequence (Q8TDV5 1-335): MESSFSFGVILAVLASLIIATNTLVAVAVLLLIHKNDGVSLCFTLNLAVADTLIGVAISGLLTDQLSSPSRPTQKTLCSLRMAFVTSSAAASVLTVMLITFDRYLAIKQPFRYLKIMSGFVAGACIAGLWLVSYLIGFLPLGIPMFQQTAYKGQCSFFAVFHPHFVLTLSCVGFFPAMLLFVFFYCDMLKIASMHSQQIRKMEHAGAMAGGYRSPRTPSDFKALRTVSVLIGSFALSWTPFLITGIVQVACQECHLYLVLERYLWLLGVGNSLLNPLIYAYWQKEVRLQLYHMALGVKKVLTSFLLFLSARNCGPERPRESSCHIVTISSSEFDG
Kind of test: HTRF cAMP cell-based GPR119 agonist assay (hGPR119 HEK-CRE beta-lactamase cells). The settings on record: HTRF cAMP, hGPR119 HEK-CRE beta-lactamase cells; each line is a separate determination; read-out: Human cAMP Functional EC50. Further details: host or cells: hGPR119-HEK293-CRE-beta-lactamase cells. As for the experimental part:
GPR119 agonist activity was also determined with a cell-based assay utilizing an HTRF (Homogeneous Time-Resolved Fluorescence) cAMP detection kit (cAMP dynamic 2 Assay Kit; Cis Bio cat #62AM4PEC) that measures cAMP levels in the cell. The method is a competitive immunoassay between native cAMP produced by the cells and the cAMP labeled with the dye d2. The tracer binding is visualized by a Mab anti-cAMP labeled with Cryptate. The specific signal (i.e. energy transfer) is inversely proportional to the concentration of cAMP in either standard or sample.
Specifically, hGPR119HEK-CRE beta-lactamase cells (Invitrogen 2.5×10^7/mL; the same cell line used in the beta-lactamase assay described above) are removed from cryopreservation and diluted in growth medium (Dulbecco's modified Eagle medium high glucose (DMEM; Gibco Cat #11995-065), 1% charcoal dextran treated fetal bovine serum (CD serum; HyClone Cat # SH30068.03), 1×MEM Nonessential amino acids (Gibco Cat #15630-080) and 25 mM HEPES pH 7.0 (Gibco Cat #15630-080)). The cell concentration was adjusted to 1.5×10^5 cells/mL and 30 mLs of this suspension was added to a T-175 flask and incubated at 37 degrees Celsius in a humidified environment in 5% carbon dioxide. […]
Varying concentrations of each compound to be tested were diluted in assay buffer containing 3-isobutyl-1-methylxanthin (IBMX; Sigma cat #15879) and added to the assay plate wells in a volume of 2 microL (final IBMX concentration was 400 microM and final DMSO concentration was 0.58%). […] The plates were then incubated at room temperature and after 60 minutes, changes in the HTRF signal were read with an Envision 2104 multilabel plate reader using excitation of 330 nm and emissions of 615 and 665 nm. Raw data were converted to nM cAMP by interpolation from a cAMP standard curve (as described in the manufacturer's assay protocol) and EC50 determinations were made from an agonist-response curves analyzed with a curve fitting program using a 4-paramter logistic dose response equation.
(Time-resolved FRET reads energy transfer from a long-lived donor to a nearby acceptor.)

`Cc1c(O[C@@H]2[C@@H]3COC[C@H]2CN(C(=O)OC2(C)CC2)C3)ncnc1N1CCc2ncccc21` [Example 28, 1-Methylcyclopropyl (9-syn)-9-{[6-(2,3-dihydro-1H-pyrrolo[3,2-b]pyridin-1-yl)-5-methylpyrimidin-4-yl]oxy}-3-oxa-7-azabicyclo[3.3.1]nonane-7-carboxylate]: the EC50 (usually the concentration giving half of the maximal effect) is 0.00379 µM at human GPR119 [1]; 0.37 µM and 0.194 µM and 0.088 µM at human GPR119 [2].
With `Cc1c(O[C@@H]2[C@@H]3COC[C@H]2CN(C(=O)OC(C)C)C3)ncnc1N1CCc2cc(S(C)(=O)=O)ccc21` [Example 23, Isopropyl (9-syn)-9-({5-methyl-6-[5-(methylsulfonyl)-2,3-dihydro-1H-indol-1-yl]pyrimidin-4-yl}oxy)-3-oxa-7-azabicyclo[3.3.1]nonane-7-carboxylate], the EC50 at human GPR119 [1] was 0.037 µM; at human GPR119 [2], 0.311 µM and 0.982 µM and 1.04 µM and 1.33 µM.
